Each structure is given as a SMILES string.

Consider 1 compound from doi:10.1101/2020.02.20.957365v1, “Tree bark scrape fungus: A potential source of laccase for application in bioremediation of non-textile dyes” (biorxiv, 2020).

The subject of the experiment is T1, laccase of Aspergillus sp. HB_RZ4.
T1 construct: native extracellular enzyme purified from culture supernatant (ammonium sulfate, DEAE-cellulose, Sephadex G-100); about 62 kDa by SDS-PAGE
The experiment in a line: ABTS oxidation at […] nm, Michaelis-Menten and Lineweaver-Burk. In kind it is biochemical. The following applies: apparent Km; ABTS 10-200 mM; assay buffer 100 mM sodium acetate pH 4.0; free enzyme.

By Km is commonly meant the concentration of substrate that gives half-maximal velocity. Turning to `CCn1c(=NN=c2sc3cc(S(=O)(=O)O)ccc3n2CC)sc2cc(S(=O)(=O)O)ccc21` [ABTS, 2,2’-azino-bis (3-ethylbenzothiazoline 6-sulphonic acid)], the Km amounted to 26.8 mM.
